Source: patent US5932551A, “Substituted N-carboxyalkylpeptidyl derivatives as antidegenerative active agents” (Merck & Co., Inc., priority 1997, dated 1999)

Tests used:
Type in all cases: biochemical
collagenase = biological target: T1, collagenase (Homo sapiens, UniProt P03956); test: Inhibition of collagenase cleavage of thioester peptide Ac-Pro-Leu-Gly-S-Leu-Leu-Gly-OC2H5; conditions: read-out: Inhibition of Collagenase pH = 6.5 (IC50)
T1 sequence (P03956 100-469): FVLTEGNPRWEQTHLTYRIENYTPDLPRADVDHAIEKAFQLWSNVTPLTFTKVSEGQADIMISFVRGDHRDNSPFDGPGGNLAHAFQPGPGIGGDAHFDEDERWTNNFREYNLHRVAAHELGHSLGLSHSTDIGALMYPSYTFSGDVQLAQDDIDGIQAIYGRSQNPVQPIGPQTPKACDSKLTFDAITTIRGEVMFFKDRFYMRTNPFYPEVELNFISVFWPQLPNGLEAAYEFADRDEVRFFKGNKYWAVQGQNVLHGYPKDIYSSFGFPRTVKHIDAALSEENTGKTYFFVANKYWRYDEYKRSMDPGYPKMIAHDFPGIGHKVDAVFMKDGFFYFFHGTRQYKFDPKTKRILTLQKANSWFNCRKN
Description: (§1) The peptide portion is herein designated SEQ ID No: 2:.

[1] = biological target: T2, 72 kD Galatinase (gelatinase) (Homo sapiens, UniProt P08253); test: Inhibition of gelatinase-mediated cleavage of fluorogenic substrate Dnp-Pro-Leu-Gly-Leu-Trp-Ala-D-ArgNH2; conditions: pH = 7.5
T2 sequence (P08253 110-660): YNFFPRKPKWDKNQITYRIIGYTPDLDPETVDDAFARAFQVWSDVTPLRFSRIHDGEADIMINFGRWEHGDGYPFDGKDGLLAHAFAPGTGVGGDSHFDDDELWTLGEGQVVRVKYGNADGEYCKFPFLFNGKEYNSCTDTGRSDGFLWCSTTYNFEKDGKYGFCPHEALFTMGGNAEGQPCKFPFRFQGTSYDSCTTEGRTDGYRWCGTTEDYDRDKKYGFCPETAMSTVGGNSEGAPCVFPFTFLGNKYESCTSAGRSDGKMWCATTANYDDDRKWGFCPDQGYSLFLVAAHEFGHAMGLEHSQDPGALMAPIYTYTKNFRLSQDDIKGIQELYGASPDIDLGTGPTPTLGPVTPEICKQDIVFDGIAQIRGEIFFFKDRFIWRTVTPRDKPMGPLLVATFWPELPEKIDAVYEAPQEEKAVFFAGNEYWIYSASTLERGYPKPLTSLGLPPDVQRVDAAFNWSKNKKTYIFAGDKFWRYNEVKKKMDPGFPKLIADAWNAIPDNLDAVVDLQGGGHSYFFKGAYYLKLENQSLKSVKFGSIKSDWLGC
Description: as §1

stromelysin = stromelysin (Homo sapiens, UniProt P08254); test: Inhibition of stromelysin-mediated hydrolysis of substance P (HPLC-based assay); conditions: pH = 7.5
Sequence of stromelysin (P08254 100-477): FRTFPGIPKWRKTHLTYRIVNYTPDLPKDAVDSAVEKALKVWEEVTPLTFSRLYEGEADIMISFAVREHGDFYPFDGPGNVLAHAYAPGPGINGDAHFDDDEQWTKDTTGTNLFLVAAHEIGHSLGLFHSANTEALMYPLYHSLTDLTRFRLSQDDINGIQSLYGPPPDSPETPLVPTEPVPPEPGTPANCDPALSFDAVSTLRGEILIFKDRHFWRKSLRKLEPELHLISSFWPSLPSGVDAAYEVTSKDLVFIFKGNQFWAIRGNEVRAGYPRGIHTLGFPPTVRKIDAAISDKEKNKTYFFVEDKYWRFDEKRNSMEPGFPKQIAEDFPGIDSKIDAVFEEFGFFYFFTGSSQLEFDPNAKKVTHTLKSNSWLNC

IC50 (collagenase) | Ki [1] | IC50 (stromelysin) | SMILES
60 nM | 930 nM |  | CC(C)C[C@H](NC(=O)[C@H](CCc1ccccc1)N[C@H](C)C(=O)O)C(=O)Nc1ccccc1 [5a, N-[1(R)-Carboxy-ethyl]-α-(S)-(2-phenyl-ethyl)glycine-(L)-leucine, N-phenylamide]
250 nM | 86 nM | 200 nM | CC(C)C[C@H](NC(=O)[C@H](CCc1ccccc1)N[C@H](CCCCN1C(=O)c2ccccc2C1=O)C(=O)O)C(=O)Nc1ccccc1 [5d]
